According to publication PMC5775428, “Towards an experimental classification system for membrane active peptides” (Scientific Reports, 2018):
Read-outs that look alike come from different tables or passages of the source. No end group written: not given here.

What was measured:
Bacillus cereus = tested on: Bacillus cereus
In short: (§1)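 MICs determined per CLSI M7-A10 (bacteria) and M27-A3 (yeasts) protocols, peptides tested at 0.5 to 256 μM. MIC taken as the lowest concentration with no cells seen by optical microscopy; three biological repeats with 2 technical replicates each.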

Bacillus subtilis = tested on: Bacillus subtilis
In short: as §1

Candida albicans = tested on: Candida albicans
In short: as §1

Cryptococcus neoformans = tested on: Cryptococcus neoformans
In short: as §1

Erwinia carotovora = tested on: Erwinia carotovora
In short: as §1

Escherichia coli = tested on: Escherichia coli
In short: as §1

Pseudomonas aeruginosa = tested on: Pseudomonas aeruginosa
In short: as §1

[1] = tested on: Pseudomonas syringae pv. tabaci
In short: as §1

Staphylococcus aureus = tested on: Staphylococcus aureus
In short: as §1

Xanthomonas campestris = settings: for Minimum inhibitory concentration, Average: average of triplicates
In short: as §1

[2] = Bacillus subtilis, CLSI M7-A10, triplicate 1
[3] = Bacillus subtilis, average of triplicates
[4] = Bacillus subtilis, triplicate 2
[5] = Bacillus subtilis, triplicate 3
[6] = Candida albicans, CLSI M27-A3, 0.5 to 256 μM tested, triplicate 1, also published in ref 7
[7] = Candida albicans, average of triplicates
[8] = Cryptococcus neoformans, CLSI M27-A3, triplicate 1
[9] = Cryptococcus neoformans, average of triplicates
[10] = Cryptococcus neoformans, triplicate 2
[11] = Cryptococcus neoformans, triplicate 3
[12] = Erwinia carotovora, CLSI M7-A10, triplicate 1
[13] = Erwinia carotovora, average of triplicates
[14] = Erwinia carotovora, triplicate 2
[15] = Erwinia carotovora, triplicate 3
[16] = Escherichia coli, CLSI M7-A10, triplicate 1
[17] = Escherichia coli, average of triplicates
[18] = Pseudomonas syringae pv. tabaci, CLSI M7-A10, triplicate 1
[19] = Pseudomonas syringae pv. tabaci, average of triplicates
[20] = Pseudomonas syringae pv. tabaci, triplicate 2
[21] = Pseudomonas syringae pv. tabaci, triplicate 3
[22] = Staphylococcus aureus, CLSI M7-A10, triplicate 1
[23] = Staphylococcus aureus, average of triplicates
[24] = Staphylococcus aureus, triplicate 2
[25] = Staphylococcus aureus, triplicate 3
[26] = Bacillus cereus, CLSI M7-A10, triplicate 1
[27] = Bacillus cereus, average of triplicates
[28] = Pseudomonas aeruginosa, CLSI M7-A10, triplicate 1
[29] = Pseudomonas aeruginosa, average of triplicates
[30] = Pseudomonas aeruginosa, triplicate 2
[31] = Pseudomonas aeruginosa, triplicate 3

FFYNVIKIYGNMAGRISK [Cs03]
Minimum inhibitory concentration (Bacillus cereus): 512 µM | Minimum inhibitory concentration, Average (Bacillus cereus): 512.0 µM | Minimum inhibitory concentration (Bacillus subtilis; [2]): 64 µM | Minimum inhibitory concentration, Average (Bacillus subtilis; [3]): 64.0 µM | Minimum inhibitory concentration (Bacillus subtilis; [4]): 64 µM | Minimum inhibitory concentration (Bacillus subtilis; [5]): 64 µM | Minimum inhibitory concentration (Candida albicans; [6]): 128 µM | Minimum inhibitory concentration, Average (Candida albicans; [7]): 128.0 µM | Minimum inhibitory concentration (Candida albicans; Candida albicans, triplicate 2): 128 µM | Minimum inhibitory concentration (Candida albicans; Candida albicans, triplicate 3): 128 µM | Minimum inhibitory concentration (Cryptococcus neoformans; [8]): 32 µM | Minimum inhibitory concentration, Average (Cryptococcus neoformans; [9]): 32.0 µM | Minimum inhibitory concentration (Cryptococcus neoformans; [10]): 32 µM | Minimum inhibitory concentration (Cryptococcus neoformans; [11]): 32 µM | Minimum inhibitory concentration (Erwinia carotovora; [12]): 16 µM | Minimum inhibitory concentration, Average (Erwinia carotovora; [13]): 16.0 µM | Minimum inhibitory concentration (Erwinia carotovora; [14]): 16 µM | Minimum inhibitory concentration (Erwinia carotovora; [15]): 16 µM | Minimum inhibitory concentration (Escherichia coli; [16]): 128 µM | Minimum inhibitory concentration, Average (Escherichia coli; [17]): 128.0 µM | Minimum inhibitory concentration (Escherichia coli; Escherichia coli, triplicate 2): 128 µM | Minimum inhibitory concentration (Escherichia coli; Escherichia coli, triplicate 3): 128 µM | Minimum inhibitory concentration (Pseudomonas aeruginosa): 512 µM | Minimum inhibitory concentration, Average (Pseudomonas aeruginosa): 512.0 µM | Minimum inhibitory concentration [1, 18]: 128 µM | Minimum inhibitory concentration, Average [1, 19]: 128.0 µM | Minimum inhibitory concentration [1, 20]: 128 µM | Minimum inhibitory concentration [1, 21]: 128 µM | Minimum inhibitory concentration (Staphylococcus aureus; [22]): 128 µM | Minimum inhibitory concentration, Average (Staphylococcus aureus; [23]): 128.0 µM | Minimum inhibitory concentration (Staphylococcus aureus; [24]): 128 µM | Minimum inhibitory concentration (Staphylococcus aureus; [25]): 128 µM | Minimum inhibitory concentration (Xanthomonas campestris; CLSI M7-A10, triplicate 1): 512 µM | Minimum inhibitory concentration, Average (Xanthomonas campestris): 512.0 µM | Minimum inhibitory concentration (Xanthomonas campestris; triplicate 2): 512 µM | Minimum inhibitory concentration (Xanthomonas campestris; triplicate 3): 512 µM

GLWSTIKQKGKEAAIAAAKAAGQAALGAL-NH2 [DS01, Dermaseptin DS01, reference compound]
Minimum inhibitory concentration, Average (Bacillus cereus): 16.0 µM | Minimum inhibitory concentration, Average (Bacillus subtilis): 1.0 µM | Minimum inhibitory concentration, Average (Candida albicans): 4.0 µM | Minimum inhibitory concentration, Average (Cryptococcus neoformans): 8.0 µM | Minimum inhibitory concentration, Average (Erwinia carotovora): 0.5 µM | Minimum inhibitory concentration, Average (Escherichia coli): 1.0 µM | Minimum inhibitory concentration, Average (Pseudomonas aeruginosa): 2.0 µM | Minimum inhibitory concentration, Average [1]: 1.0 µM | Minimum inhibitory concentration, Average (Staphylococcus aureus): 8.0 µM | Minimum inhibitory concentration, Average (Xanthomonas campestris): 0.5 µM

GSLHGFMYKYLKTLVLRLY [Zm01]
Minimum inhibitory concentration (Bacillus cereus; [26]): 64 µM | Minimum inhibitory concentration, Average (Bacillus cereus; [27]): 44.7 µM | Minimum inhibitory concentration (Bacillus cereus; Bacillus cereus, triplicate 2): 64 µM | Minimum inhibitory concentration (Bacillus subtilis; [2]): 8 µM | Minimum inhibitory concentration, Average (Bacillus subtilis; [3]): 8.0 µM | Minimum inhibitory concentration (Bacillus subtilis; [4]): 8 µM | Minimum inhibitory concentration (Bacillus subtilis; [5]): 8 µM | Minimum inhibitory concentration (Candida albicans; [6]): 4 µM | Minimum inhibitory concentration, Average (Candida albicans; [7]): 6.7 µM | Minimum inhibitory concentration (Candida albicans; Candida albicans, triplicate 2): 8 µM | Minimum inhibitory concentration (Candida albicans; Candida albicans, triplicate 3): 8 µM | Minimum inhibitory concentration (Cryptococcus neoformans; [8]): 4 µM | Minimum inhibitory concentration, Average (Cryptococcus neoformans; [9]): 4.0 µM | Minimum inhibitory concentration (Cryptococcus neoformans; [10]): 4 µM | Minimum inhibitory concentration (Cryptococcus neoformans; [11]): 4 µM | Minimum inhibitory concentration (Erwinia carotovora; [12]): 16 µM | Minimum inhibitory concentration, Average (Erwinia carotovora; [13]): 16.0 µM | Minimum inhibitory concentration (Erwinia carotovora; [14]): 16 µM | Minimum inhibitory concentration (Erwinia carotovora; [15]): 16 µM | Minimum inhibitory concentration (Escherichia coli; [16]): 8 µM | Minimum inhibitory concentration, Average (Escherichia coli; [17]): 13.3 µM | Minimum inhibitory concentration (Escherichia coli; Escherichia coli, triplicate 2): 16 µM | Minimum inhibitory concentration (Escherichia coli; Escherichia coli, triplicate 3): 16 µM | Minimum inhibitory concentration (Pseudomonas aeruginosa; [28]): 16 µM | Minimum inhibitory concentration, Average (Pseudomonas aeruginosa; [29]): 16.0 µM | Minimum inhibitory concentration (Pseudomonas aeruginosa; [30]): 16 µM | Minimum inhibitory concentration (Pseudomonas aeruginosa; [31]): 16 µM | Minimum inhibitory concentration [1, 18]: 32 µM | Minimum inhibitory concentration, Average [1, 19]: 32.0 µM | Minimum inhibitory concentration [1, 20]: 32 µM | Minimum inhibitory concentration [1, 21]: 32 µM | Minimum inhibitory concentration (Staphylococcus aureus; [22]): 16 µM | Minimum inhibitory concentration, Average (Staphylococcus aureus; [23]): 16.0 µM | Minimum inhibitory concentration (Staphylococcus aureus; [24]): 16 µM | Minimum inhibitory concentration (Staphylococcus aureus; [25]): 16 µM | Minimum inhibitory concentration (Xanthomonas campestris; CLSI M7-A10, triplicate 1): 16 µM | Minimum inhibitory concentration, Average (Xanthomonas campestris): 16.0 µM | Minimum inhibitory concentration (Xanthomonas campestris; triplicate 2): 16 µM | Minimum inhibitory concentration (Xanthomonas campestris; triplicate 3): 16 µM

ANRLLEAYKMLLKFLGNLR [Gr02]
Minimum inhibitory concentration (Bacillus cereus; [26]): 4 µM | Minimum inhibitory concentration, Average (Bacillus cereus; [27]): 4.0 µM | Minimum inhibitory concentration (Bacillus cereus; Bacillus cereus, triplicate 2): 4 µM | Minimum inhibitory concentration (Bacillus cereus; Bacillus cereus, triplicate 3): 4 µM | Minimum inhibitory concentration (Bacillus subtilis; [2]): 1 µM | Minimum inhibitory concentration, Average (Bacillus subtilis; [3]): 1.0 µM | Minimum inhibitory concentration (Bacillus subtilis; [4]): 1 µM | Minimum inhibitory concentration (Bacillus subtilis; [5]): 1 µM | Minimum inhibitory concentration (Candida albicans; [6]): 4 µM | Minimum inhibitory concentration, Average (Candida albicans; [7]): 4.0 µM | Minimum inhibitory concentration (Candida albicans; Candida albicans, triplicate 2): 4 µM | Minimum inhibitory concentration (Candida albicans; Candida albicans, triplicate 3): 4 µM | Minimum inhibitory concentration (Cryptococcus neoformans; [8]): 2 µM | Minimum inhibitory concentration, Average (Cryptococcus neoformans; [9]): 2.7 µM | Minimum inhibitory concentration (Cryptococcus neoformans; [10]): 2 µM | Minimum inhibitory concentration (Cryptococcus neoformans; [11]): 4 µM | Minimum inhibitory concentration (Erwinia carotovora; [12]): 1 µM | Minimum inhibitory concentration, Average (Erwinia carotovora; [13]): 1.0 µM | Minimum inhibitory concentration (Erwinia carotovora; [14]): 1 µM | Minimum inhibitory concentration (Erwinia carotovora; [15]): 1 µM | Minimum inhibitory concentration (Escherichia coli; [16]): 4 µM | Minimum inhibitory concentration, Average (Escherichia coli; [17]): 4.0 µM | Minimum inhibitory concentration (Escherichia coli; Escherichia coli, triplicate 2): 4 µM | Minimum inhibitory concentration (Escherichia coli; Escherichia coli, triplicate 3): 4 µM | Minimum inhibitory concentration (Pseudomonas aeruginosa; [28]): 32 µM | Minimum inhibitory concentration, Average (Pseudomonas aeruginosa; [29]): 32.0 µM | Minimum inhibitory concentration (Pseudomonas aeruginosa; [30]): 32 µM | Minimum inhibitory concentration (Pseudomonas aeruginosa; [31]): 32 µM | Minimum inhibitory concentration [1, 18]: 2 µM | Minimum inhibitory concentration, Average [1, 19]: 2.0 µM | Minimum inhibitory concentration [1, 20]: 2 µM | Minimum inhibitory concentration [1, 21]: 2 µM | Minimum inhibitory concentration (Staphylococcus aureus; [22]): 1 µM | Minimum inhibitory concentration, Average (Staphylococcus aureus; [23]): 1.0 µM | Minimum inhibitory concentration (Staphylococcus aureus; [24]): 1 µM | Minimum inhibitory concentration (Staphylococcus aureus; [25]): 1 µM | Minimum inhibitory concentration (Xanthomonas campestris; CLSI M7-A10, triplicate 1): 4 µM | Minimum inhibitory concentration, Average (Xanthomonas campestris): 4.0 µM | Minimum inhibitory concentration (Xanthomonas campestris; triplicate 2): 4 µM | Minimum inhibitory concentration (Xanthomonas campestris; triplicate 3): 4 µM
